Assay results taken from ChEMBL document CHEMBL1147534, “Examination of the 1,4-disubstituted azetidinone ring system as a template for combretastatin A-4 conformationally restricted analogue design” (Bioorg Med Chem Lett, 2004).

What was measured:
MCF7 [1] = experiment: In vitro cytotoxicity against human breast carcinoma (MCF-7) tumor cell line; assay type: functional, cell-based
ACHN = experiment: In vitro cytotoxicity against human renal adenocarcinoma (ACHN) tumor cell line; assay type: functional, cell-based
CFPAC-1 = experiment: In vitro cytotoxicity against human pancreatic cancer (CFPAC-1) tumor cell line; assay type: functional, cell-based
AR-42J cell line = experiment: In vitro cytotoxicity against rat pancreatic (AR-42J) tumor cell line; assay type: functional, cell-based
CHO-K1 = experiment: In vitro cytotoxicity against chinese hamster ovary (CHO-K1) tumor cell line; assay type: functional, cell-based, Cricetulus griseus
DU-145 = experiment: In vitro cytotoxicity against human Prostate carcinoma (DU145) tumor cell line; assay type: functional, cell-based
DLD-1 = experiment: In vitro cytotoxicity against human colon adenocarcinoma (DLD-1) tumor cell line; assay type: functional, cell-based
T98G = experiment: In vitro cytotoxicity against human glioblastoma (T-98G) tumor cell line; assay type: functional, cell-based
NCI-H460 = experiment: In vitro cytotoxicity against human lung carcinoma (NCI-H460) tumor cell line; assay type: functional, cell-based
MOLT-4 = experiment: In vitro cytotoxicity against human leukemia (MOLT-4) cell line; assay type: functional, cell-based
HeLa = experiment: In vitro cytotoxicity against human cervix adenocarcinoma (HeLa) tumor cell line; assay type: functional, cell-based
HCT-116 = experiment: In vitro cytotoxicity against human colon carcinoma (HCT116) tumor cell line; assay type: functional, cell-based
IMR-32 = experiment: In vitro cytotoxicity against human cancerous neuroblastoma cells (IMR-32); assay type: functional, cell-based
MCF7 [2] = experiment: In vitro cytotoxicity against human cancerous cells (MCF-7) was determined; assay type: functional, cell-based
NCI-H69 = experiment: In vitro cytotoxicity against human cancerous cells (NCI-H69) was determined; assay type: functional, cell-based

SMILES | IC50 (MCF7 [1]) [nM] | IC50 (ACHN) [nM] | IC50 (CFPAC-1) [nM] | IC50 (AR-42J cell line) [nM] | IC50 (CHO-K1; Cricetulus griseus, CHO-K1) [nM] | IC50 (DU-145) [nM] | IC50 (DLD-1) [nM] | IC50 (T98G) [nM] | IC50 (NCI-H460) [nM] | IC50 (MOLT-4) [nM] | IC50 (HeLa) [nM] | IC50 (HCT-116) [nM] | IC50 (IMR-32; Homo sapiens, IMR-32) [nM] | further results
COc1ccc(C2C(OC)C(=O)N2c2cc(OC)c(OC)c(OC)c2)cc1[N+](=O)[O-] (configuration not stated) | > 10000 | > 10000 | > 10000 | > 10000 | > 10000 | > 10000 | > 10000 | > 5000 | > 10000 | > 10000 | > 10000 | > 10000 | – | IC50 (IMR-32; imr-32): > 10000 nM
COc1cc(N2C(=O)C(OC(C)=O)C2c2ccc([N+](=O)[O-])o2)cc(OC)c1OC (configuration not stated) | – | – | – | – | – | – | – | – | – | – | – | – | 811 | –
COc1ccc(N2C(=O)C(O)C2c2cc(OC)c(OC)c(OC)c2)cc1 (configuration not stated) | – | – | – | – | – | – | – | – | – | – | – | – | > 1000 | –
COc1cc(N2C(=O)C(OC(C)=O)C2c2ccc3c(c2)OCO3)cc(OC)c1OC (configuration not stated) | – | – | – | – | – | – | – | – | – | – | – | – | 910 | –
COc1ccc(N2C(=O)C(OC(C)=O)C2c2cc(OC)c(OC)c(OC)c2)cc1 (configuration not stated) | – | – | – | – | – | – | – | – | – | – | – | – | > 1000 | –
COc1ccc2cc(C3C(OC(C)=O)C(=O)N3c3cc(OC)c(OC)c(OC)c3)ccc2c1 (configuration not stated) | – | – | – | – | – | – | – | – | – | – | – | – | > 1000 | –
COc1cc(C2C(O)C(=O)N2c2ccc3c(c2)OCO3)cc(OC)c1OC (configuration not stated) | – | – | – | – | – | – | – | – | – | – | – | – | > 1000 | –
COc1cc(N2C(=O)C(OC)C2c2ccc3c(c2)OCO3)cc(OC)c1OC (configuration not stated) | – | – | – | – | – | – | – | – | – | – | – | – | > 1000 | –
COc1ccc(C2C(OC(C)=O)C(=O)N2c2cc(OC)c(OC)c(OC)c2)cc1[N+](=O)[O-] (configuration not stated) | 105 | 595 | 197 | 582 | 473 | 479 | 326 | 144 | 393 | 350 | 202 | 526 | 123 | –
COc1ccc(C2C(O)C(=O)N2c2cc(OC)c(OC)c(OC)c2)cn1 (configuration not stated) | – | – | – | – | – | – | – | – | – | – | – | – | > 1000 | –
COc1ccc2cc(C3C(O)C(=O)N3c3cc(OC)c(OC)c(OC)c3)ccc2c1 (configuration not stated) | – | – | – | – | – | – | – | – | – | – | – | – | 89 | –
COc1cc(N2C(=O)C(O)C2c2ccc3c(c2)OCO3)cc(OC)c1OC (configuration not stated) | 544 | 2120 | 885 | 1480 | 891 | 3160 | 905 | 800 | 1440 | 398 | 546 | 950 | 473 | IC50 (IMR-32; imr-32): 445 nM
COc1ccc(C2C(OC(C)=O)C(=O)N2c2cc(OC)c(OC)c(OC)c2)cc1N (configuration not stated) | 70.5 | 150 | 204 | 219 | 462 | 430 | 394 | 145 | 449 | 372 | 262 | 368 | 73.1 | IC50 (CHO-K1; cho-k1): 509 nM; IC50 (MCF7 [2]): 200 nM; IC50 (NCI-H69): 41 nM
COc1cc(N2C(=O)C(OC(C)=O)C2c2ccc(N(C)C)cc2)cc(OC)c1OC (configuration not stated) | – | – | – | – | – | – | – | – | – | – | – | – | 520 | –
COc1cc(N2C(=O)C(OC(C)=O)C2c2ccc(N)o2)cc(OC)c1OC (configuration not stated) | – | – | – | – | – | – | – | – | – | – | – | – | > 1000 | –
COc1ccc(C2C(O)C(=O)N2c2cc(OC)c(OC)c(OC)c2)cc1N (configuration not stated) | 55 | 91.2 | 50.2 | 62.1 | 544 | 380 | 130 | 109 | 184 | 71.7 | 63.9 | 140 | 37 | IC50 (CHO-K1; cho-k1): 411 nM; IC50 (MCF7 [2]): 81 nM; IC50 (NCI-H69): 25 nM; IC50 (IMR-32; imr-32): 38.3 nM
COc1ccc(C2C(O)C(=O)N2c2cc(OC)c(OC)c(OC)c2)cc1[N+](=O)[O-] (configuration not stated) | 37.1 | 29.2 | 42.1 | 212 | 236 | 91.9 | 59.1 | 49.8 | 425 | 74 | 40 | 68.8 | 38 | IC50 (CHO-K1; cho-k1): 416 nM; IC50 (MCF7 [2]): 97 nM; IC50 (NCI-H69): 74 nM; IC50 (IMR-32; imr-32): 41.4 nM
COc1cc(C2C(OC(C)=O)C(=O)N2c2ccc3c(c2)OCO3)cc(OC)c1OC (configuration not stated) | > 10000 | > 10000 | > 10000 | > 10000 | > 10000 | > 10000 | > 10000 | > 10000 | > 10000 | > 10000 | > 10000 | > 10000 | – | IC50 (IMR-32; imr-32): > 10000 nM
COc1ccc(C2C(OC(C)=O)C(=O)N2c2cc(OC)c(OC)c(OC)c2)cn1 (configuration not stated) | – | – | – | – | – | – | – | – | – | – | – | – | > 1000 | –
COc1ccc(C2C(OC)C(=O)N2c2cc(OC)c(OC)c(OC)c2)cc1N (configuration not stated) | – | – | – | – | – | – | – | – | – | – | – | – | > 1000 | –
COc1cc(N2C(=O)C(O)C2c2ccc([N+](=O)[O-])o2)cc(OC)c1OC (configuration not stated) | – | – | – | – | – | – | – | – | – | – | – | – | > 1000 | –
COc1ccc(C2C(O)C(=O)N2c2cc(OC)c(OC)c(OC)c2)cc1 (configuration not stated) | – | – | – | – | 509 | – | – | – | – | – | – | – | 33 | IC50 (MCF7 [2]): 62 nM; IC50 (NCI-H69): 47 nM
COc1ccc(C2C(OC(C)=O)C(=O)N2c2cc(OC)c(OC)c(OC)c2)cc1 (configuration not stated) | – | – | – | – | – | – | – | – | – | – | – | – | 251 | –
